Patent US6632794B1, “Insulin-like growth factor agonist molecules” (Genentech, Inc., priority 1997, dated 2003)
Positions of bridges follow the written chain, without caps; N, C: chain ends. Residues, ends and D or L forms follow the SMILES beside them.

Legend:
[1] = target: T1, recombinant human (rh) IGFBP-1 (Homo sapiens, UniProt P08833); experiment: ^125I-IGF-I competitive binding plate assay, IGFBP-1; conditions: FIG. 36
T1 sequence (P08833 26-259): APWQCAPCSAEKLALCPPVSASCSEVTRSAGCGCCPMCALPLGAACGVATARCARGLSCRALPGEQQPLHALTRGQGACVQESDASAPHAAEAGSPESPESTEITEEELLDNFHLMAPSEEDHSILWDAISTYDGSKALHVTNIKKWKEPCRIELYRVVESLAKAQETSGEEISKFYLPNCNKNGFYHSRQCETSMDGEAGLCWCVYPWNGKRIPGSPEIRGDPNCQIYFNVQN
Description: (§1) The mutant (Leu^24,Ala^31)hIGF-I was also tested for its ability to displace radio-labeled rhIGF-I off the IGFBPs in a competitive binding assay. This assay involves coating recombinant human (rh) IGFBP-1 or rhIGFBP-3 (160 ng/ml) onto 96-well plates overnight, blocking the plates for one hour with 0.5% BSA, adding rhIGF-I (250-0.08 ng/ml) or (Leu^24,Ala^31)hIGF-I for 1 hour, then adding 20,000 cpm of ^125I-IGF-I and incubating for 2 hours before washing and counting.
(§2) As an additional assay of peptide activity, several peptides were tested in an assay using ^125I-labeled IGF-I to measure inhibition of IGFBP binding, as described in Example 1 (Assay 3). Serial dilutions of peptide were added to an IGFBP-1 or an IGFBP-3 plate. Thereafter, ^125I-labeled IGF-I was added and the plates were incubated for 2 hours. The plates were then washed and counted to determine the amount of bound IGF-I.

IGFBP-3 [2] = target: T2, IGFBP-3 (Homo sapiens, UniProt P17936); experiment: ^125I-IGF-I competitive binding plate assay, IGFBP-3; conditions: FIG. 35
T2 sequence (P17936 28-291): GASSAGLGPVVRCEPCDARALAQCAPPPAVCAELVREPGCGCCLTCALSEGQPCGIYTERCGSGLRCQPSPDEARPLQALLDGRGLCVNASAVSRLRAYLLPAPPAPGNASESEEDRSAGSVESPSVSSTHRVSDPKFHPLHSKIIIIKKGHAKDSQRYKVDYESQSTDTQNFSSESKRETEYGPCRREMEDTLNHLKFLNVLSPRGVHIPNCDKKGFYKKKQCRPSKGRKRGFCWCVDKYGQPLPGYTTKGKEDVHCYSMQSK
Description: as §1, §2

IGFBP-3 [3] = target: T2, IGFBP-3; experiment: BIAcore competition assay, IGFBP-3 binding to immobilized IGF-I; conditions: for IGF-I Inhibition IC50 (mut)/IC50 (wt): bp3-01-ox variants by BIAcore, wt = bp3-01-ox
Description: A. BIAcore™ Competition Assay (for IGFBP-3 Binders)
IGF-I was immobilized on a dextran chip for inhibition assays using a BIAcore™ 2000 surface-plasmon-resonance device (BIAcore, Inc., Piscataway, N.J.) to measure free binding protein. […] Serial dilutions of peptide were mixed with a constant concentration (40 nM) of IGFBP-3. After incubation for >1 hour at room temperature, an aliquot of 20 μL was injected at a flow rate of 20 μL/min over the IGF-I chip. Following the injection, a response reading was taken to measure the relative amount of IGFBP-3 bound to the IGF-I.

IGFBP-1 [4] = target: T3, IGFBP-1 (Homo sapiens, UniProt P08833); experiment: Biotin-BP plate (ELISA) assay, biotinylated IGFBP-1 binding to IGF-I; conditions: FIG. 33
T3 construct: biotin (chemical label, EZ-LINK NHS-SS-Biotin)
T3 sequence (P08833 26-259): T1 sequence (P08833 26-259)
Description: 1. Biotin-BP Assay (for IGFBP-1 Binders)
For inhibition of IGFBP-1 binding, IGFBP-1 (as well as IGFBP-3 as a control) were biotinylated as described above. MAXISORP™plates were coated and blocked as described above, using 2 μg/mL IGF-I. In a separate plate, serial dilutions of peptide were premixed with a constant concentration (20 nM) of biotinylated IGFBP-1. After 20 min. at room temperature, the mixture was added to the IGF-I plate. The peptide/IGFBP mix was then removed and the plate was washed ten times with PBS buffer containing 0.05% TWEEN-20™ surfactant. Bound biotin-IGFBP-1 was then detected using streptavidin-conjugated horse radish peroxidase, and a chromogenic substrate.
A second series of peptides made use of non-natural amino acids to probe whether other structural features such as an added methyl group at the alpha carbon, or an isomer (D-alanine) could affect peptide binding to IGFBP-1.
Substitutions at the N-terminus or C-terminus yielded affinity improvements. […] All of these peptides had similar or improved apparent affinity for IGFBP-1 as compared with bp1-01 and bp1-02 and are thus expected to increase the availability of IGF-I in an in vitro cell culture assay.

IGFBP-1 [5] = target: T3, IGFBP-1; experiment: KIRA assay of IGF-I activity with IGF-I plus IGFBP-1 and peptide; assay type: cell-based; conditions: FIG. 37B
Description: (§3) C. In Vitro Activation (KIRA)
(§4) The ability of several synthetic peptides to block IGF-I binding to IGFBPs and release functional IGF-I was tested in a KIRA assay of IGF-I activity, as described in Example 1. Cells were treated with IGF-I alone, peptide alone, peptide plus IGF-I, IGF-I plus binding protein (IGFBP-1 or IGFBP-3), or IGF-I plus binding protein (IGFBP-1 or IGFBP-3) and peptide.

IGFBP-3 [6] = target: T2, IGFBP-3; experiment: KIRA assay of IGF-I activity with IGF-I plus IGFBP-3 and peptide; assay type: cell-based
Description: as §3, §4
It is believed that this would drop to 30 uM with a 1:1 ratio.

IGFBP-3 [7] = target: T2, IGFBP-3; experiment: BIAcore competition assay, IGFBP-3 binding to immobilized IGF-II; conditions: 20 nM IGFBP-3; approximately 1500 RU immobilized IGF-II; read-out: IC50, inhibition of IGFBP-3 binding to IGF-II (BIAcore)
Description: D. BIAcore™ Competition Assay (for IGFBP-3 Binders)
IGF-II was immobilized on a dextran chip for inhibition assays using a BIAcore™ 2000 surface-plasmon-resonance device (BIAcore, Inc., Piscataway, N.J.) to measure free binding protein. IGF-II was biotinylated as described above, and injected over a chip to which streptavidin had been coupled (BIAcore, Inc.) to give approximately 1500 RU of immobilized IGF-II. […] Serial dilutions of peptide were mixed with a constant concentration (20 nM) of IGFBP-3. After incubation for ≧1 hour at room temperature, an aliquot of 20 μl was injected at a flow rate of 20 μl/min over the IGF-II chip. Following the injection, a response reading was taken to measure the relative amount of IGFBP-3 bound to the IGF-II.

[8] = test system: endogenous IGFBPs present in human serum; experiment: Displacement of ^125I-IGF-I from IGFBPs in human serum (FPLC-SEC); assay type: binding; conditions: human serum; peptide at 0.2 mM
Description: To determine if the IGF mutant could displace IGF-I from endogenous IGFBPs present in human serum, the following experiment was performed. Radiolabeled rhIGF-I (^125-IGF-I) was incubated with normal human serum samples at a concentration of 33 ng/ml for 16 hr at 4° C. to allow for the formation of […] complexes. […] The samples (n=3) were then analyzed by FPLC size-exclusion chromatography (FPLC-SEC) to determine the relative size and amounts of the ^125I-IGF-I:IGFBP complexes.
Data are expressed as cpm per fraction (n=1).
This Example tests an IGFBP-3-specific peptide, BP15, for its ability to block the binding of ^125I-IGF-I in human serum. Human serum was incubated with ^125I-IGF-I±the peptide and the amount of tracer bound to IGFBPs via size-exclusion chromatography was measured.

[9] = 40 nM IGFBP-3, 400 to 800 RU immobilized IGF-I, read-out: BIAcore Assay IC50, inhibition of IGF-I binding to IGFBP-3

Compound	inhibition of ^125I-IGF-I binding to an IGFBP-1 coated plate [1]	inhibition of ^125I-IGF-I binding to an IGFBP-3 plate (IGFBP-3 [2])	IGF-I Inhibition IC50 (mut)/IC50 (wt) (IGFBP-3 [3])	IC50 (IGFBP-3 [7]) [µM]	IC50 (IGFBP-3 [3]; [9]) [µM]	also measured
CSCC[C@H](NC(=O)[C@H](CC(N)=O)NC(=O)[C@@H]1CSSC[C@H](NC(=O)[C@@H](NC(=O)[C@H](CCC(=O)O)NC(=O)[C@H](CCC(=O)O)NC(=O)[C@@H](N)CO)C(C)C)C(=O)N[C@@H](Cc2c[nH]c3ccccc23)C(=O)N2CCC[C@H]2C(=O)N[C@@H](C(C)C)C(=O)N[C@@H](C)C(=O)N[C@@H](CCC(=O)O)C(=O)N[C@@H](Cc2c[nH]c3ccccc23)C(=O)N[C@@H](Cc2ccc(O)cc2)C(=O)N[C@@H](CC(C)C)C(=O)N1)C(=O)N[C@@H](Cc1c[nH]c2ccccc12)C(=O)NCC(=O)O [BP3-01-ox] (H-SEEVCWPVAEWYLCNMWG-OH; disulfide 5-14; N-terminus and C-terminus assumed)	did not inhibit	inhibition	1	0.92	–	inhibition of biotinylated IGFBP-1 binding to IGF-I plate (IGFBP-1 [4]): little or no inhibition; effect on IGF-I activity in KIRA with IGF-I plus IGFBP-1 (IGFBP-1 [5]): no significant effect; effect on IGF-I activity in KIRA with IGF-I plus IGFBP-3 (IGFBP-3 [6]; FIG. 37D): no significant effect
CSCC[C@@H]1NC(=O)[C@H](Cc2c[nH]c3ccccc23)NC(=O)[C@@H]2CCCN2C(=O)CNC(=O)[C@H](CC(=O)O)NC(=O)[C@H](C)NC(=O)[C@@H](NC(=O)[C@@H](NC(=O)CNC(=O)[C@H](CCSC)NC(=O)[C@@H](N)CC(=O)O)C(C)C)CSSC[C@@H](C(=O)N[C@@H](CCC(=O)O)C(=O)N[C@@H](Cc2c[nH]c3ccccc23)C(=O)N[C@H](C(=O)N[C@@H](CCC(=O)O)C(=O)O)[C@@H](C)O)NC(=O)[C@H](C(C)C)NC(=O)[C@H](Cc2ccc(O)cc2)NC1=O [BP3-02-ox] (H-DMGVCADGPWMYVCEWTE-OH; disulfide 5-14; N-terminus and C-terminus assumed)	did not inhibit	inhibition	–	–	12	–
CC[C@H](C)[C@@H]1NC(=O)[C@H](Cc2ccc(O)cc2)NC(=O)CNC(=O)[C@H](CCC(N)=O)NC(=O)[C@H](CC(=O)O)NC(=O)[C@H](Cc2c[nH]cn2)NC(=O)[C@H](CCCNC(=N)N)NC(=O)[C@H](CC(=O)O)NC(=O)[C@H](Cc2c[nH]c3ccccc23)NC(=O)[C@@H](NC(=O)[C@@H](NC(=O)[C@H](CCC(=O)O)NC(=O)[C@H](Cc2c[nH]c3ccccc23)NC(=O)[C@H](C)NC(=O)[C@@H](N)C(C)C)C(C)C)CSSC[C@@H](C(=O)N[C@H](C(=O)N[C@H](C(=O)N[C@@H](CC(=O)O)C(=O)N[C@@H](CO)C(=O)O)[C@@H](C)O)[C@@H](C)O)NC1=O [BP3-4D3.11] (H-VAWEVCWDRHDQGYICTTDS-OH; disulfide 6-16; N-terminus and C-terminus assumed)	–	–	–	1	< 10	–
CC(C)C[C@@H]1NC(=O)[C@H](Cc2ccc(O)cc2)NC(=O)[C@H](Cc2c[nH]c3ccccc23)NC(=O)[C@H](CCC(=O)O)NC(=O)[C@H](C)NC(=O)[C@H](C(C)C)NC(=O)[C@@H]2CCCN2C(=O)[C@H](Cc2c[nH]c3ccccc23)NC(=O)[C@@H](NC(=O)[C@@H](NC(=O)[C@H](CCC(=O)O)NC(=O)[C@H](CCC(=O)O)NC(=O)[C@@H](N)CO)C(C)C)CSSC[C@@H](C(=O)N[C@@H](CC(N)=O)C(=O)O)NC1=O [BP15] (H-SEEVCWPVAEWYLCN-OH; disulfide 5-14; N-terminus and C-terminus assumed)	–	–	0.36	0.78	0.75	IC50 (IGFBP-3 [3]; bp3-01-ox variants by BIAcore competition assay, read-out: IGF-I Inhibition IC50): 0.72 µM; IC50 believed to result with a 1:1 ratio (KIRA) (IGFBP-3 [6]; IGFBP-3:IGF-1 1:1 ratio, not tested): 30 µM; IC50 (IGFBP-3 [6]; IGFBP-3:IGF-1 at a 3:1 ratio, read-out: IC50 for blocking of IGFBP-3 (activation of the KIRA assay)): 95 µM; decrease in ^125I-IGF-I associated with the 150-KD IGF/IGFBP-3/ALS complex [8]: ~42%; increase in the amount of free ^125I-IGF-I [8]: 59%
CC(C)C[C@@H]1NC(=O)[C@H](Cc2ccc(O)cc2)NC(=O)[C@H](Cc2c[nH]c3ccccc23)NC(=O)[C@H](CCC(=O)O)NC(=O)[C@H](C)NC(=O)[C@H](C(C)C)NC(=O)[C@@H]2CCCN2C(=O)[C@H](Cc2c[nH]c3ccccc23)NC(=O)[C@@H](NC(=O)[C@@H](N)C(C)C)CSSC[C@@H](C(=O)N[C@@H](CC(N)=O)C(=O)O)NC1=O [BP17] (H-VCWPVAEWYLCN-OH; disulfide 2-11; N-terminus and C-terminus assumed)	–	–	–	5.1	9	–
